Measured values as given in patent US10226044B2, “Agricultural and horticultural composition and method for cultivating plant” (AJINOMOTO CO., INC., priority 2014, dated 2019).

Assays:
[1] = test system: tomato fruit (Suncherry Pure); experiment: Coloring and carotenoid content of harvested immature tomato fruit sprinkled with Ile; format: in vivo
Protocol: Then, the beakers were closed with plastic wrap, and left for 5 hours; then the wrap was removed, and the fruit were left as they were. The test was performed at room temperature, and the sprinkling of water and Ile solution was performed twice in total at an interval of one week. […] The tomato fruit of which seeds were removed were frozen with liquid nitrogen, and ground in a mortar. […] The extraction mixture was centrifuged for 5 minutes (8000 rpm), and the chloroform layer as the lower layer was transferred to a new tube. Chloroform (0.5 mL) was added again to the former tube, extraction was performed in the same manner, and the chloroform layer was fully taken out, and transferred to the latter tube containing the aforementioned chloroform extract. Then, chloroform was evaporated from the obtained extract by using a centrifugal evaporator. Then, a sample solution was prepared by adding 0.5 mL of chloroform to the residue to dissolve it, and carotenoids contained in the sample solution were analyzed. For the measurement of carotenoids, the extraction sample was diluted 100 times with chloroform, and absorbance thereof was measured at the extinction wavelength of carotenoids (480 nm) by using DU800 Spectrophotometer (Beckman Coulter).

[2] = test system: VR callus derived from European grape; experiment: Anthocyanin content of grape calluses treated with amino acids; format: cell-based, Vitis vinifera L.
Protocol: A cell line (VR, management number RPC00003) derived from European grape (Vitis vinifera L.) and stored in the Institute of Physical and Chemical Research, BioResource Center was subcultured on the MS agar medium. The subcultured VR callus was transferred to the MS agar medium containing a 5 mM solution of a different amino acid, and cultured. For the positive control, abscisic acid (ABA), for which coloring-promoting effect is known, was used at 100 μM (Jeong et al., Plant Science, 167:247-252, 2004). On the 5th day after the transfer, the callus was lyophilized and ground, and anthocyanin was extracted from it by using a 1% HCl/MeOH solution. Absorbance of the extract was measured at 530 nm, and the content of anthocyanin was measured by using cyanidine 3-glucoside as a standard substance.
(2) In the same manner as described above, anthocyanin content of grape calluses treated with isoleucine and proline, respectively, were measured.

[3] = test system: cherry tomato (Suncherry Pure); experiment: Amino acid analysis of tomato fruit obtained with sprinkling of Ile or Pro; format: in vivo
Protocol: After the plants of four root clumps uniformly grew, and flower buds began to appear, water (Con.), 10 mM L-isoleucine aqueous solution (Ile), or 10 mM proline aqueous solution (Pro) was sprinkled on the whole plants once a week. The sprinkled volume was adjusted in accordance with the growth of the plants, and it was 15 to 30 mL per one root clump.
Mature fruit were taken from each of the cherry tomato plants sprinkled with water, Ile, or Pro, and the amino acid content was analyzed for each. Two pieces of fruit were taken from the flower cluster of the second tier of one root clump, that is, a total of 8 pieces of fruit were taken for each test group. Fruit juice was pressed out of each piece of fruit, and the fruit juice was diluted 10 times with 0.02 N HCl, and subjected to filter filtration. The amino acids contained in the obtained filtrate were measured. Measurement of the amino acids was performed with High Speed Amino Acid Analyzer L-8800 (Hitachi) according to the manual of this instrument. The amounts of the amino acids (μmol/mL) in each fruit juice filtrate were calculated, and the averages for eight pieces of fruit were used as the amino acid amounts of the corresponding test group.

[4] = fruit juice, plants sprinkled with 10 mM solution once a week, average of 8 fruit

For CC[C@H](C)[C@H](N)C(=O)O [Ile, L-isoleucine], the “color of harvested fruit around the 27th day” value ([1]; 10 mM Ile, 1 mL on six immature fruit, twice at an interval of one week, room temperature, water control still green) was “began to turn color”, the “color of harvested fruit around the 34th day” value ([1]; 10 mM Ile, sprinkled twice, water control still half-mature orange) was “turned color to a fully mature red” and the “carotenoid content of the tomato fruit” value ([1]; around the 27th day, absorbance at 480 nm, compared to fruit treated with water) was “higher”. For the same molecule, the “anthocyanin content of callus, comparison of amino acids” value ([2]; 5 mM, 5th day) was “highest”, the “change in color of the grape callus (anthocyanin content)” value ([2]; Ile of 1 mM or higher, Pro compared with Ile) was “promoted” and the “many kinds of essential amino acids including branched chain amino acids and aromatic amino acids in fruit” value ([3]; 10 mM sprinkled once a week, compared to control) was “increased”. For the same molecule, the “Ala in fruit juice” value [3, 4] was 4.51 µmol/mL, the “Arg in fruit juice” value [3, 4] was 0.14 µmol/mL and the “Asn in fruit juice” value [3, 4] was 0.55 µmol/mL. For the same molecule, the “Asp in fruit juice” value [3, 4] was 1.33 µmol/mL, the “Cys in fruit juice” value [3, 4] was 0.21 µmol/mL and the “Gln in fruit juice” value [3, 4] was 1.1 µmol/mL. The “Glu in fruit juice” value [3, 4] was 6.46 µmol/mL, the “Gly in fruit juice” value [3, 4] was 0.35 µmol/mL and the “His in fruit juice” value [3, 4] was 0.19 µmol/mL. For the same molecule, the “Ile in fruit juice” value [3, 4] was 0.23 µmol/mL, the “Leu in fruit juice” value [3, 4] was 0.39 µmol/mL and the “Lys in fruit juice” value [3, 4] was 0.33 µmol/mL. For the same molecule, the “Met in fruit juice” value [3, 4] was 0.09 µmol/mL, the “Phe in fruit juice” value [3, 4] was 0.5 µmol/mL and the “Pro in fruit juice” value [3, 4] was 0.33 µmol/mL. The “Ser in fruit juice” value [3, 4] was 0.67 µmol/mL, the “Thr in fruit juice” value [3, 4] was 0.3 µmol/mL and the “Total amino acids in fruit juice” value [3, 4] was 20.25 µmol/mL. For the same molecule, the “Trp in fruit juice” value [3, 4] was 0.06 µmol/mL, the “Tyr in fruit juice” value [3, 4] was 0.082 µmol/mL and the “Val in fruit juice” value [3, 4] was 0.21 µmol/mL. The “γ-ABA in fruit juice” value [3, 4] was 6.42 µmol/mL.
